Results reported in paper PMC7571145, “Multistep Synthesis and In Vitro Anticancer Evaluation of 2-Pyrazolyl-Estradiol Derivatives, Pyrazolocoumarin-Estradiol Hybrids and Analogous Compounds” (Molecules, 2020).
Where two headings read alike, the source gives them in different places.

How the values were obtained:
HeLa cells = assay: MTT cytotoxicity assay on HeLa cells; type: cell-based; settings: for primary growth inhibitory screen, cell viability, HeLa: 2.5 µM, mean±SD, untreated control about 100; for IC50: mean ± SD
Experimental: (§1) Cytotoxicity screens were performed to assess the in vitro anticancer activity of the synthesized A-ring-linked 2-pyrazoles of estradiol, the pyrazolocoumarin-estradiol hybrids, and their structurally simplified non-steroidal analogs on various cancerous cell lines such as MCF-7, PC-3, DU145, and HeLa and on non-cancerous MRC-5 fibroblasts. The 2-acetyl-phenol starting materials (4, 5, and 15) were also included for comparison. All compounds were applied in 2.5 µM concentration for 72 h. The obtained cell viability data were used to construct a heat map (Figure 2) in order to select compounds that exert cancer cell line-specific cytotoxicity. […] Furthermore, some compounds discriminated only DU145 cells and could eliminate these type of prostate cancer cells.
(§2) To understand structure-function relationships, we also included the structural analogs of the selected compounds, namely 7a (C-17 acetate of 8a), 8c (C-17 OH counterpart of 7c), and 9a (steroidal pair of 19a) into subsequent analyses. […] For this, compounds were applied on MCF-7, PC-3, DU145, and HeLa and on non-cancerous MRC-5 fibroblasts in various concentrations for 72 h or were treated with cisplatin at different concentrations. On the viability data, dose–response curves were fitted (Figure S1) and IC50 values were calculated accordingly (Table 3). In agreement with the primary cytotoxicity screen (Table S1), the obtained IC50 concentrations clearly indicated which compound was selectively effective on one or more cancer cell lines. […] Typically, acetylated steroidal pyrazoles were less favorable than deacetylated counterparts due to reduced cancer cell selectivity (7c, 10a).
(§3) To evaluate the in vitro pharmacological effects of the synthesized molecules, each compound was first dissolved in cell culture grade DMSO (Sigma) to a final concentration of 10 mM. Using MTT colorimetric assay, the cytotoxicity of these compounds was evaluated on cancerous (MCF-7, HeLa, DU145, PC-3) and non-cancerous (MRC-5) cell lines. Briefly, 5000 cells/well of each cell line were seeded in 96-well plates and were left to grow overnight in a 5% CO2 atmosphere at 37 °C. On the next day, cells were treated with each derivative separately, in case of the primary screen, or only with the selected compounds upon IC50 determination. Cells were incubated with the test compounds for 72 h in a 5% CO2 atmosphere at 37 °C. End point was measured by incubating cells for 1 h with 0.5 mg/mL of MTT reagent (Serva) dissolved in serum free culture medium. The formazan crystals formed by metabolically active cells were later dissolved in DMSO. Optical density of the obtained solutions was measured at 570 nm using a Synergy HTX plate reader. […] The analysis and conclusions were made based on three independent experiments. Normalized data were analyzed and the heat map was constructed using GraphPad Prism 7 software.

PC-3 cells = assay: MTT cytotoxicity assay on PC-3 prostate cancer cells; type: cell-based; settings: for primary growth inhibitory screen, cell viability, PC-3: 2.5 µM, 72 h, mean±SD, untreated control about 100; for IC50: mean ± SD
Experimental: as §1, §2, §3

DU145 cells = assay: MTT cytotoxicity assay on DU145 prostate cancer cells; type: cell-based; settings: for primary growth inhibitory screen, cell viability, DU145: 2.5 µM, 72 h, mean±SD, untreated control about 100; for IC50: mean ± SD
Experimental: as §1, §2, §3

MRC-5 fibroblasts = assay: MTT cytotoxicity assay on non-cancerous MRC-5 fibroblasts; type: cell-based; settings: for primary growth inhibitory screen, cell viability, MRC-5 / effect on non-cancerous fibroblasts: 2.5 µM; for primary growth inhibitory screen, cell viability, MRC-5 / IC50: MTT; for primary growth inhibitory screen, cell viability, MRC-5: mean±SD, untreated control about 100; for effect on non-cancerous fibroblasts: based on the heat map; for IC50: mean ± SD
Experimental: as §1, §2, §3

MCF-7 cells = assay: MTT cytotoxicity assay on MCF-7 cells; type: cell-based; settings: for primary growth inhibitory screen, cell viability, MCF-7: 2.5 µM, 72 h, mean±SD, untreated control about 100; for IC50: mean ± SD
Experimental: as §1, §2, §3

[1] = Homo sapiens, HeLa, 72 h, compounds 1-7 µM, read-out: IC50 on HeLa
[2] = Homo sapiens, PC-3, 72 h, compounds 1-7 µM, read-out: IC50 on PC-3
[3] = Homo sapiens, DU-145, 72 h, compounds 1-7 µM, read-out: IC50 on DU145
[4] = Homo sapiens, MRC5, 72 h, compounds 1-7 µM, read-out: IC50 on MRC-5
[5] = Homo sapiens, MCF7, 72 h, compounds 1-7 µM, read-out: IC50 on MCF-7

Row | SMILES | melting point | primary growth inhibitory screen, cell viability, HeLa (HeLa cells; 72 h) | primary growth inhibitory screen, cell viability, PC-3 (PC-3 cells) | primary growth inhibitory screen, cell viability, DU145 (DU145 cells) | primary growth inhibitory screen, cell viability, MRC-5 (MRC-5 fibroblasts; 72 h) | primary growth inhibitory screen, cell viability, MCF-7 (MCF-7 cells) | IC50 (HeLa cells; [1]) | IC50 (PC-3 cells; [2]) | IC50 (DU145 cells; [3]) | effect on non-cancerous fibroblasts (MRC-5 fibroblasts; 72 h) | IC50 (MRC-5 fibroblasts; [4]) | IC50 (MCF-7 cells; [5]) | IC50 (HeLa cells; cisplatin applied for 24 h, 20-330 µM, read-out: IC50 on HeLa (positive control)) | IC50 (PC-3 cells; cisplatin applied for 24 h, 20-330 µM, read-out: IC50 on PC-3 (positive control)) | IC50 (DU145 cells; cisplatin applied for 24 h, 20-330 µM, read-out: IC50 on DU145 (positive control)) | IC50 (MRC-5 fibroblasts; cisplatin applied for 24 h, 20-330 µM, read-out: IC50 on MRC-5 (positive control)) | IC50 (MCF-7 cells; cisplatin applied for 24 h, 20-330 µM, read-out: IC50 on MCF-7 (positive control))
1 | CC(=O)O[C@H]1CC[C@H]2[C@@H]3CCc4cc5oc(=O)c6cn(-c7ccc(C)cc7)nc6c5cc4[C@H]3CC[C@]12C [Compound 9b] | 264 to 266 °C | 68.0±0.4 | 86.2±2.4 | ≥ 100±4.5 | ≥ 100±4.2 | ≥ 100±0.8 | – | – | – | – | – | – | – | – | – | – | –
2 | O=Cc1cn(-c2ccccc2)nc1-c1cc2c(cc1O)CCCC2 [Compound 17a, 3′-(3-Hydroxy-5,6,7,8-tetrahydronaphthalen-2-yl)-1′-phenyl-1′H-pyrazole-4′-carbaldehyde] | 137 to 138 °C | 53.7±3.3 | 71.0±20.9 | ≥ 100±6.4 | ≥ 100±7.3 | ≥ 100±2.3 | 2.2 ± 1.1 µM | 4.3 ± 1 µM | 5.62 ± 1 µM | no or very mild effect | 6.26 ± 1.1 µM | 5.17 ± 1 µM | – | – | – | – | –
3 | CC(=O)O[C@H]1CC[C@H]2[C@@H]3CCc4cc(O)c(-c5nn(-c6ccc(C)cc6)cc5CO)cc4[C@H]3CC[C@]12C [Compound 10b] | 254 to 256 °C | 68.3±2.2 | 88.0±5.6 | ≥ 100±6.8 | 96.9±3.8 | 87.6±0.7 | – | – | – | – | – | – | – | – | – | – | –
4 | C[C@]12CC[C@@H]3c4cc(-c5nn(-c6ccc(Cl)cc6)cc5C=O)c(O)cc4CC[C@H]3[C@@H]1CC[C@@H]2O [Compound 8c] | > 190 °C (dec.) | 83.1±6.2 | 94.8±4.0 | ≥ 100±5.0 | ≥ 100±3.3 | ≥ 100±5.3 | 3.39 ± 1 µM | 5.08 ± 1 µM | 4.82 ± 1 µM | – | 5.53 ± 1 µM | 5.34 ± 1 µM | – | – | – | – | –
5 | Cc1ccc(-n2cc(C=O)c(-c3cc4c(cc3O)CCCC4)n2)cc1 [Compound 17b, 3′-(3-Hydroxy-5,6,7,8-tetrahydronaphthalen-2-yl)-1′-(4″-tolyl)-1′H-pyrazole-4′-carbaldehyde] | 151 to 153 °C | ≥ 100±3.9 | ≥ 100±3.0 | ≥ 100±16.8 | ≥ 100±14.5 | 93.2±6.0 | – | – | – | – | – | – | – | – | – | – | –
6 | Cc1ccc(-n2cc(CO)c(-c3cc4c(cc3O)CCCC4)n2)cc1 [Compound 18b, 3-(4′-(Hydroxymethyl)-1′-(4″-tolyl)-1′H-pyrazol-3-yl)-5,6,7,8-tetrahydro-2-naphthol] | 163 to 165 °C | ≥ 100±8.7 | 99.6±7.7 | 45.3±2.5 | ≥ 100±2.6 | ≥ 100±5.3 | > 7 µM | > 7 µM | 2.7 ± 1.1 µM | no or very mild effect | > 7 µM | > 7 µM | – | – | – | – | –
7 | C[C@]12CC[C@@H]3c4cc(-c5nn(-c6ccc(Cl)cc6)cc5CO)c(O)cc4CC[C@H]3[C@@H]1CC[C@@H]2O [Compound 11c] | 240 to 242 °C | 77.9±1.5 | 87.1±3.8 | 127.1±4.9 | ≥ 100±8.4 | ≥ 100±0.7 | – | – | – | – | – | – | – | – | – | – | –
8 | OCc1cn(-c2ccccc2)nc1-c1cc2c(cc1O)CCCC2 [Compound 18a, 3-(4′-(Hydroxymethyl)-1′-phenyl-1′H-pyrazol-3′-yl)-5,6,7,8-tetrahydro-2-naphthol] | 135 to 137 °C | ≥ 100±6.5 | 91.5±12.9 | 87.0±18.2 | ≥ 100±0.1 | 98.0±7.1 | – | – | – | – | – | – | – | – | – | – | –
9 | CC(=O)O[C@H]1CC[C@H]2[C@@H]3CCc4cc5oc(=O)c6cn(-c7ccccc7)nc6c5cc4[C@H]3CC[C@]12C [Compound 9a] | 198 to 200 °C | 73.8±0.6 | 82.0±2.2 | ≥ 100±5.8 | ≥ 100±8.1 | ≥ 100±2.4 | 1.55 ± 1 µM | 4.22 ± 1 µM | 5.66 ± 1 µM | – | 6.41 ± 1.1 µM | 4.94 ± 1 µM | – | – | – | – | –
10 | CC(=O)O[C@H]1CC[C@H]2[C@@H]3CCc4cc(O)c(-c5nn(-c6ccc(Cl)cc6)cc5CO)cc4[C@H]3CC[C@]12C [Compound 10c] | 288 to 290 °C | 72.4±4.2 | 81.6±6.8 | 77.3±6.3 | 96.4±10.1 | 63.2±2.2 | – | – | – | – | – | – | – | – | – | – | –
11 | CC(=O)O[C@H]1CC[C@H]2[C@@H]3CCc4cc(O)c(-c5nn(-c6ccccc6)cc5CO)cc4[C@H]3CC[C@]12C [Compound 10a] | 257 to 259 °C | 83.2±2.0 | 63.6±17.8 | ≥ 100±15.8 | 93.6±1.7 | 73.5±7.2 | – | – | – | – | – | – | – | – | – | – | –
12 | N.N.[Cl][Pt][Cl] [cisplatin, reference compound] | – | – | – | – | – | – | – | – | – | – | – | – | 297.1 ± 1.02 µM | > 330 µM | 116.1 ± 1.06 µM | 34.3 ± 1.02 µM | > 330 µM
